ChEMBL document CHEMBL5550198, “Impact of atropisomerism on a non-steroidal glucocorticoid receptor agonist” (RSC Med Chem, 2024)

Assays:
Glucocorticoid receptor = molecular target: T1, Glucocorticoid receptor (Homo sapiens, UniProt P04150); assay: Agonist activity at glucocorticoid receptor (unknown origin) incubated for 24 hrs by cell based microplate analysis
T1 sequence (P04150 whole entry): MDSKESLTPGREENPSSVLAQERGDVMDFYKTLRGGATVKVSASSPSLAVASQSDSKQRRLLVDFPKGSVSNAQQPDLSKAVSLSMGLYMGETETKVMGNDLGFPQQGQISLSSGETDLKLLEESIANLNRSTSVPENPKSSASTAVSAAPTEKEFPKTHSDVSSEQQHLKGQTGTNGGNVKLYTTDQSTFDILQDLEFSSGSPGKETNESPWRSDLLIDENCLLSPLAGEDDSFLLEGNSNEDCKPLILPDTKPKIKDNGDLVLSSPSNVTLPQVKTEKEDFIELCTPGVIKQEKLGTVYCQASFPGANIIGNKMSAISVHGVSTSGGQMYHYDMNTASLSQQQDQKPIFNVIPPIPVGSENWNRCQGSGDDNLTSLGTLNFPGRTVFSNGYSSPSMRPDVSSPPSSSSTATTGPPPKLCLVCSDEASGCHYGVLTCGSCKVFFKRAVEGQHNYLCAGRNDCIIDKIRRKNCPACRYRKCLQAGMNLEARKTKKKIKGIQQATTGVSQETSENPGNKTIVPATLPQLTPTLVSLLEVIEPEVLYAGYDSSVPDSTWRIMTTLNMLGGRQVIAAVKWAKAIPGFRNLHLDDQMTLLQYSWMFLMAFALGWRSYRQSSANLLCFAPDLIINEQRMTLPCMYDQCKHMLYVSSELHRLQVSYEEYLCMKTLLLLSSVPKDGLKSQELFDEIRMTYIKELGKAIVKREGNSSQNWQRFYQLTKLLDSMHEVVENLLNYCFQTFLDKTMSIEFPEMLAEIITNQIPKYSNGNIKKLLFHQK

[1] = Retention time of the compound by HPLC analysis; assay type: physicochemical

CCN(C[C@@](O)(CNC(=O)c1cnn(-c2ccc(F)cc2)c1N)C(F)(F)F)C(=O)c1c(F)cccc1Cl
EC50 (Glucocorticoid receptor): 2 nM | Retention_time [1]: 2.979 min

CCN(C[C@](O)(CNC(=O)c1cnn(-c2ccc(F)cc2)c1N)C(F)(F)F)C(=O)c1c(Cl)cccc1Cl
Retention_time [1]: 3.06 min

CCN(C[C@@](O)(CNC(=O)c1cnn(-c2ccc(F)cc2)c1N)C(F)(F)F)C(=O)c1ccccc1
EC50 (Glucocorticoid receptor): 78 nM | Retention_time [1]: 2.163 min

CCN(C[C@@](O)(CNC(=O)c1cnn(-c2ccc(F)cc2)c1N)C(F)(F)F)C(=O)c1ccccc1C
Retention_time [1]: 2.179 min

CCN(C[C@@](O)(CNC(=O)c1cnn(-c2ccc(F)cc2)c1N)C(F)(F)F)C(=O)c1c(C)cccc1C
Retention_time [1]: 2.349 min

CCc1cccc(CC)c1C(=O)N(CC)C[C@@](O)(CNC(=O)c1cnn(-c2ccc(F)cc2)c1N)C(F)(F)F
EC50 (Glucocorticoid receptor): 122 nM | Retention_time [1]: 2.544 min

CCN(C[C@@](O)(CNC(=O)c1cnn(-c2ccc(F)cc2)c1N)C(F)(F)F)C(=O)c1c(F)cccc1F
EC50 (Glucocorticoid receptor): 5 nM | Retention_time [1]: 2.228 min

CCc1cccc(Cl)c1C(=O)N(CC)C[C@@](O)(CNC(=O)c1cnn(-c2ccc(F)cc2)c1N)C(F)(F)F (stereo in doubt; 14b)
EC50 (Glucocorticoid receptor): 0.5 nM | Retention_time [1]: 2.396 min

CCc1cccc(C)c1C(=O)N(CC)C[C@@](O)(CNC(=O)c1cnn(-c2ccc(F)cc2)c1N)C(F)(F)F (stereo in doubt; 13a)
Retention_time [1]: 2.394 min

CCN(C[C@@](O)(CNC(=O)c1cnn(-c2ccc(F)cc2)c1N)C(F)(F)F)C(=O)c1c(C)cccc1Cl (stereo in doubt; 10b)
EC50 (Glucocorticoid receptor): 4 nM | Retention_time [1]: 2.36 min

CCN(C[C@@](O)(CNC(=O)c1cnn(-c2ccc(F)cc2)c1N)C(F)(F)F)C(=O)c1c(C)cccc1Cl (stereo in doubt; 10a)
EC50 (Glucocorticoid receptor): 2 nM | Retention_time [1]: 2.314 min

CCc1cccc(Cl)c1C(=O)N(CC)C[C@@](O)(CNC(=O)c1cnn(-c2ccc(F)cc2)c1N)C(F)(F)F (stereo in doubt; 14a)
EC50 (Glucocorticoid receptor): 9 nM | Retention_time [1]: 2.39 min

CCc1ccccc1C(=O)N(CC)C[C@@](O)(CNC(=O)c1cnn(-c2ccc(F)cc2)c1N)C(F)(F)F
EC50 (Glucocorticoid receptor): 4 nM | Retention_time [1]: 2.353 min

CCc1cccc(C)c1C(=O)N(CC)C[C@@](O)(CNC(=O)c1cnn(-c2ccc(F)cc2)c1N)C(F)(F)F (stereo in doubt; 13b)
Retention_time [1]: 2.417 min

CCN(C[C@@](O)(CNC(=O)c1cnn(-c2ccc(F)cc2)c1N)C(F)(F)F)C(=O)c1ccccc1F
EC50 (Glucocorticoid receptor): 26 nM | Retention_time [1]: 2.249 min

CCN(C[C@@](O)(CNC(=O)c1cnn(-c2ccc(F)cc2)c1N)C(F)(F)F)C(=O)c1ccccc1Cl
Retention_time [1]: 2.238 min

CCN(C[C@@](O)(CNC(=O)c1cnn(-c2ccc(F)cc2)c1N)C(F)(F)F)C(=O)c1c(C)cccc1F
Retention_time [1]: 2.279 min

CCN(C[C@@](O)(CNC(=O)c1cnn(-c2ccc(F)cc2)c1N)C(F)(F)F)C(=O)c1c(Cl)cccc1Cl
EC50 (Glucocorticoid receptor): 2 nM | Retention_time [1]: 2.337 min
